What was measured:
Assay type in all cases: in vivo
[1] = tested on: barnyard grass (Echinochloa crus-galli Beauv.); assay: Test Example 2: herbicidal effect on paddy field weeds after emergence; conditions: Dosage 5 kg/ha; one-leaved stage; 21 days after treatment
Outline: (§1)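 Weeds were sown in 1/10000 are pots of soil flooded to paddy conditions and grown to the one-leaf stage, then the soil was treated with a solution of compound at a predetermined dosage.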

[2] = tested on: monochoria (Monochoria vaginalis Presl); assay: as above; conditions: Dosage 5 kg/ha; one-leaved stage; 21 days after treatment
Outline: as §1

[3] = tested on: bulrush (Scirpus juncoides Roxb.); assay: as above; conditions: Dosage 5 kg/ha; one-leaved stage; 21 days after treatment
Outline: as §1

[4] = tested on: bird's eye speedwell (Veronica persica Poir.), Vp; assay: Test Example 4: herbicidal effect on upland weeds after emergence; conditions: dosage 5 kg/ha; sprayed after emergence; judged 14 days after treatment
Outline: (§2)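 Scores of weed-killing rate, with crop phytotoxicity, come from inspection 14 days after plants in soil vats, grown to specified leaf stages, are sprayed with a formulation holding the compound at a prescribed concentration.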

[5] = tested on: barnyard grass (Echinochloa crus-galli Beauv.), Ec; assay: as above; conditions: dosage 5 kg/ha; sprayed after emergence; judged 14 days after treatment
Outline: as §2

[6] = tested on: forxtail grass (Alopecurus aequalis var. amurensis Ohwi), Am; assay: as above; conditions: dosage 5 kg/ha; sprayed after emergence; judged 14 days after treatment
Outline: as §2

[7] = tested on: velvetleaf (Abutilon theophtasti L.), At; assay: as above; conditions: dosage 5 kg/ha; sprayed after emergence; judged 14 days after treatment
Outline: as §2

[8] = tested on: cocklebur (Xanthium strumarium L.), Xs; assay: as above; conditions: dosage 5 kg/ha; sprayed after emergence; judged 14 days after treatment
Outline: as §2

[9] = tested on: cleavers (Galium aparine L.), Ga; assay: as above; conditions: dosage 5 kg/ha; sprayed after emergence; judged 14 days after treatment
Outline: as §2

soybean plant = assay: Test Example 4: phytotoxicity to upland crop plants, treatment after emergence; conditions: dosage 5 kg/ha, sprayed after emergence, judged 14 days after treatment
Outline: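 Weeds and soybean grown in soil-filled vats to set leaf stages, then sprayed post-emergence with the compound at a prescribed concentration. Weed-killing rate and crop phytotoxicity judged 14 days after treatment.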

wheat = assay: as above; conditions: dosage 5 kg/ha, sprayed after emergence, judged 14 days after treatment
Outline: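 Upland weeds and crop plants (soybean, wheat) are grown from seed in soil until they reach given leaf stages, then treated by spraying with the compound-containing agent; effects are judged two weeks later.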

soybean plant (So) = assay: Test Example 3: phytotoxicity to upland crop plants, treatment before emergence; conditions: dosage 5 kg/ha
Outline: (§3)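 Compound formulated as a liquid agent at a prescribed concentration is sprayed before crop emergence. After fourteen days, damage to soybean and wheat is examined and rated by a judgment criterion.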

wheat (Wh) = assay: as above; conditions: dosage 5 kg/ha
Outline: as §3

[10] = tested on: bird's eye speedwell (Veronica persica Poir.), Vp; assay: Test Example 3: herbicidal effect on upland weeds before emergence; conditions: dosage 5 kg/ha
Outline: (§4)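 Herbicidal activity was rated from kill rate determined 14 days post-spray, the compound having been applied pre-emergence as a liquid agent.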

[11] = tested on: barnyard grass (Echinochloa crus-galli Beauv.), Ec; assay: as above; conditions: dosage 5 kg/ha
Outline: as §4

[12] = tested on: forxtail grass (Alopecurus aequalis var. amurensis Ohwi), Am; assay: as above; conditions: foxtail grass, dosage 5 kg/ha
Outline: as §4

[13] = tested on: velvetleaf (Abutilon theophtasti L.), At; assay: as above; conditions: dosage 5 kg/ha
Outline: as §4

[14] = tested on: cocklebur (Xanthium strumarium L.), Xs; assay: as above; conditions: dosage 5 kg/ha
Outline: as §4

[15] = tested on: cleavers (Galium aparine L.), Ga; assay: as above; conditions: dosage 5 kg/ha
Outline: as §4

[16] = tested on: barnyard grass (Echinochloa crus-galli Beauv.); assay: Test Example 1: herbicidal effect on paddy field weeds before emergence; conditions: Dosage 5 kg/ha
Outline: (§5)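 Grading reflects percent control relative to untreated plots, evaluated three weeks post-application. Treatment was a soil application of compound solution, predetermined dose, made to paddy-state pots before weed seeds germinated.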

[17] = tested on: bulrush (Scirpus juncoides Roxb.); assay: as above; conditions: Dosage 5 kg/ha
Outline: as §5

SMILES | Post-emergence treatment Barnyard grass (herbicidal effect) [1] | Post-emergence treatment Monochoria (herbicidal effect) [2] | Post-emergence treatment Bulrush (herbicidal effect) [3] | Herbicidal effect Vp [4] | Herbicidal effect Ec [5] | Herbicidal effect Am [6] | Herbicidal effect At [7] | Herbicidal effect Xs [8] | Herbicidal effect Ga [9] | Phytotoxicity So (soybean plant) | Phytotoxicity Wh (wheat) | Phytotoxicity So (soybean plant (So)) | Phytotoxicity Wh (wheat (Wh)) | Herbicidal effect Vp [10] | Herbicidal effect Ec [11] | Herbicidal effect Am [12] | Herbicidal effect At [13] | Herbicidal effect Xs [14] | Herbicidal effect Ga [15] | Pre-emergence treatment Barnyard grass (herbicidal effect) [16] | also measured
CCCNC(=O)c1nc2c(cc1C(=O)Nc1c(CC)ccc(Cl)c1CC)CCOC2 [compound 438] | 5 (Weed-killing rate is 100%.) | 5 (Weed-killing rate is 100%.) | 5 (Weed-killing rate is 100%.) | 5 (Weed-killing rate is 100%.) | 5 (Weed-killing rate is 100%.) | 5 (Weed-killing rate is 100%.) | 5 (Weed-killing rate is 100%.) | 5 (Weed-killing rate is 100%.) | 5 (Weed-killing rate is 100%.) | 4 (Crop-killing rate is 90-99%.) | 5 (Crop-killing rate is 100%.) | 5 (Crop-killing rate is 100%.) | 5 (Crop-killing rate is 100%.) | 5 (Weed-killing rate is 100%.) | 5 (Weed-killing rate is 100%.) | 5 (Weed-killing rate is 100%.) | 5 (Weed-killing rate is 100%.) | 5 (Weed-killing rate is 100%.) | 5 (Weed-killing rate is 100%.) | 5 (Weed-killing rate is 100%.) | Pre-emergence treatment Bulrush (herbicidal effect) [17]: 5 (Weed-killing rate is 100%.)
CCc1ccc(Cl)c(CC)c1NC(=O)c1cc2c(nc1C(=O)NC1CCCC1)COCC2 [compound 447] | 5 (Weed-killing rate is 100%.) | 5 (Weed-killing rate is 100%.) | 5 (Weed-killing rate is 100%.) | 5 (Weed-killing rate is 100%.) | 5 (Weed-killing rate is 100%.) | 5 (Weed-killing rate is 100%.) | 5 (Weed-killing rate is 100%.) | 5 (Weed-killing rate is 100%.) | 5 (Weed-killing rate is 100%.) | 4 (Crop-killing rate is 90-99%.) | 5 (Crop-killing rate is 100%.) | 4 (Crop-killing rate is 90-99%.) | 5 (Crop-killing rate is 100%.) | 5 (Weed-killing rate is 100%.) | 5 (Weed-killing rate is 100%.) | 5 (Weed-killing rate is 100%.) | 5 (Weed-killing rate is 100%.) | 5 (Weed-killing rate is 100%.) | 5 (Weed-killing rate is 100%.) | 5 (Weed-killing rate is 100%.) | Pre-emergence treatment Bulrush (herbicidal effect) [17]: 5 (Weed-killing rate is 100%.)
CCCNC(=O)c1nc2c(cc1C(=O)Nc1cccc(Cl)c1C)CCOC2 [compound 450] | 5 (Weed-killing rate is 100%.) | 5 (Weed-killing rate is 100%.) | 5 (Weed-killing rate is 100%.) | 5 (Weed-killing rate is 100%.) | 5 (Weed-killing rate is 100%.) | 5 (Weed-killing rate is 100%.) | 5 (Weed-killing rate is 100%.) | 4 (Weed-killing rate is 90-99%.) | 4 (Weed-killing rate is 90-99%.) | 4 (Crop-killing rate is 90-99%.) | 4 (Crop-killing rate is 90-99%.) | 4 (Crop-killing rate is 90-99%.) | 4 (Crop-killing rate is 90-99%.) | 5 (Weed-killing rate is 100%.) | 5 (Weed-killing rate is 100%.) | 5 (Weed-killing rate is 100%.) | 5 (Weed-killing rate is 100%.) | 4 (Weed-killing rate is 90-99%.) | 4 (Weed-killing rate is 90-99%.) | 5 (Weed-killing rate is 100%.) | Pre-emergence treatment Bulrush (herbicidal effect) [17]: 5 (Weed-killing rate is 100%.)
CCCNC(=O)c1nc2c(cc1C(=O)Nc1cccc(Cl)c1C)COCC2 [compound 474] | 5 (Weed-killing rate is 100%.) | 5 (Weed-killing rate is 100%.) | 5 (Weed-killing rate is 100%.) | 5 (Weed-killing rate is 100%.) | 5 (Weed-killing rate is 100%.) | 5 (Weed-killing rate is 100%.) | 5 (Weed-killing rate is 100%.) | 4 (Weed-killing rate is 90-99%.) | 4 (Weed-killing rate is 90-99%.) | 3 (Crop-killing rate is 70-89%.) | 3 (Crop-killing rate is 70-89%.) | 3 (Crop-killing rate is 70-89%.) | 4 (Crop-killing rate is 90-99%.) | 5 (Weed-killing rate is 100%.) | 5 (Weed-killing rate is 100%.) | 5 (Weed-killing rate is 100%.) | 5 (Weed-killing rate is 100%.) | 4 (Weed-killing rate is 90-99%.) | 4 (Weed-killing rate is 90-99%.) | 5 (Weed-killing rate is 100%.) | Pre-emergence treatment Bulrush (herbicidal effect) [17]: 5 (Weed-killing rate is 100%.)
CCCNC(=O)c1nc2c(cc1C(=O)Nc1c(CC)ccc(Cl)c1CC)OCCC2 [compound 486] | 5 (Weed-killing rate is 100%.) | 5 (Weed-killing rate is 100%.) | 5 (Weed-killing rate is 100%.) | 5 (Weed-killing rate is 100%.) | 5 (Weed-killing rate is 100%.) | 5 (Weed-killing rate is 100%.) | 5 (Weed-killing rate is 100%.) | 5 (Weed-killing rate is 100%.) | 5 (Weed-killing rate is 100%.) | 4 (Crop-killing rate is 90-99%.) | 4 (Crop-killing rate is 90-99%.) | 4 (Crop-killing rate is 90-99%.) | 4 (Crop-killing rate is 90-99%.) | 5 (Weed-killing rate is 100%.) | 5 (Weed-killing rate is 100%.) | 5 (Weed-killing rate is 100%.) | 5 (Weed-killing rate is 100%.) | 5 (Weed-killing rate is 100%.) | 5 (Weed-killing rate is 100%.) | 5 (Weed-killing rate is 100%.) | Pre-emergence treatment Bulrush (herbicidal effect) [17]: 5 (Weed-killing rate is 100%.)
